Source: PMC11249646, “Small-Molecule Disruptors of the Interaction between Calcium- and Integrin-Binding Protein 1 and Integrin αIIbβ3 as Novel Antiplatelet Agents” (ACS Pharmacology & Translational Science, 2024)
Read-outs that look alike come from different tables or passages of the source.

Target: T1, CIB1 and αIIb interaction (CIB1-GST : F-αIIb peptide) (Homo sapiens, UniProt Q99828)
T1 construct: made in house; host or cells: BL-21 plus RIL cells (E. coli)
T1 sequence (Q99828 1-191): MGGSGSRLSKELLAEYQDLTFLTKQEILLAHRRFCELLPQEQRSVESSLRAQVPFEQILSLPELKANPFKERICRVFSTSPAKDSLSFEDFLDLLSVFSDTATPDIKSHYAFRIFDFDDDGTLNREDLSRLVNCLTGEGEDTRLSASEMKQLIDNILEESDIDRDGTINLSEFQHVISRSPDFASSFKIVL
Assay: FP assay, 1536-well qHTS format (primary and confirmatory screen)
Type: binding
Settings: for Efficacy (%): negative = inhibition; for Curve Class: negative sign = inhibitory curve; for IC50: read-out: IC50

[1] = qHTS primary screen hits, Table S2
[2] = qHTS primary screen hits, Table S2, several classes where COUNT > 1
[3] = qHTS primary screen of LOPAC/NPACT libraries

Row | SMILES | Efficacy (%) [1] | Curve Class [2] | IC50 [1] | Efficacy (%) [3] | Curve Class [3] | IC50 [3] | other results
1 | CSc1ccc(/C=C2/C(C)=C(CC(=O)O)c3cc(F)ccc32)cc1 [NCGC00161601-02] | -32% | -2.4 | 79.4 µM |  |  |  | 
2 | Cc1cc(S(=O)(=O)Nc2cnccc2C(=O)Nc2nc(-c3ccccc3)cs2)c(C)o1.O=C(O)C(F)(F)F [NCGC00345029-02] |  |  |  |  |  |  | Efficacy (%) (qHTS FP screen hits, Table S2): -46%; IC50 (qHTS FP screen hits, Table S2): 38.1 µM
3 | CN1CCc2ccccc2Cc2[nH]c3ccccc3c2CC1 [NCGC00015614-05] |  |  |  | -28% | -2.4 | 31.6 µM | 
4 | CC(C)(O)CC(=O)NCCn1ccc2ncnc(Nc3ccc(Oc4cccc(C(F)(F)F)c4)c(Cl)c3)c21 [NCGC00346699-06] |  |  |  | -30% | -2.4 | 100 µM | 
5 | CC[C@@]1(O)C(=O)OCc2c1cc1n(c2=O)Cc2cc3c(CN(C)C)c(O)ccc3nc2-1 [NCGC00014925-07] | -147% |  | 24.5 µM |  |  |  | 
6 | Nc1nc2c(s1)C(c1ccccc1Cl)CC(O)=N2 (centres unmarked) [NCGC00284018-04] | -37% |  | 53.2 µM |  |  |  | Curve Class [1]: -2.4
7 | CCOC(=O)c1nnc(NS(=O)(=O)c2ccc(NC(=O)Cc3ccc(Cl)c(Cl)c3)cc2)s1.O=C(O)C(F)(F)F [NCGC00248354-02] | -28% |  | 31.4 µM |  |  |  | 
8 | O=C1Nc2ccccc2/C1=C1/Nc2ccccc2/C1=N\O [NCGC00015545-07] |  |  |  | -18% | -1.2 | 3.5 µM | 
9 | C/C=C/C=C/c1cc2c(C=O)c(O)c(CC=C(C)C)cc2o1 [NCGC00386103-01] |  |  |  | -28% | -2.4 | 63.1 µM | 
10 | CCCCCCCCCCCC[N+](C)(C)CCOc1ccccc1.[Br-] [NCGC00091010-03] | -55% |  | 89.1 µM |  |  |  | Curve Class [1]: -3
11 | CN1Cc2c(N)cccc2C(c2ccccc2)C1.O=C(O)/C=C\C(=O)O (centres unmarked) [NCGC00015727-06] | -62% |  | 50.1 µM |  |  |  | Curve Class [1]: -2.2
12 | C=C1C(=O)O[C@@H]2C/C(C)=C\C(=O)/C=C(\C)[C@@H](OC(=O)/C(C)=C\C)[C@H](O)[C@@H]12 [NCGC00380290-01] |  |  |  | -23% | -1.4 | 4.5 µM | 
13 | CCCCCCCc1ccc(CCc2cccc(O)c2C(=O)O)cc1 [NCGC00263121-01] | -33% | -3 | 24.1 µM |  |  |  | 
14 | C=C1C(=O)O[C@@H]2C(OC(=O)/C(C)=C\C)/C(C)=C\C(=O)/C=C(\C)C[C@H](O)[C@@H]12 (some centres unmarked) [NCGC00381208-01] |  |  |  | -28% | -1.4 | 1.6 µM | 
15 | N.N.N.N.N.N.N.N.N.N.N.N.N.N.O.O.[Ru].[Ru].[Ru] [NCGC00162333-02] |  |  |  | -26% | -2.2 | 56.2 µM | 
16 | NC(=O)c1cc[n+](CC2=C(C(=O)O)N3C(=O)[C@@H](NC(=O)[C@@H](c4ccccc4)S(=O)(=O)[O-])[C@H]3SC2)cc1 [NCGC00162106-03] |  |  |  | -20% | -2.2 | 50.1 µM | 

Row | SMILES | Efficacy (%) [1] | Curve Class [2] | IC50 [1] | Efficacy (%) [3] | Curve Class [3] | IC50 [3] | other results
17 | CC(=O)O[C@@H](CO[C@@H]1O[C@H](CO)[C@H](O)[C@H](O)[C@H]1O)[C@]1(C)C=C2CC[C@@H]3C(C)(C)[C@@H](O)CC[C@@]3(C)[C@@H]2CC1 [NCGC00347395-02] |  |  |  | -23% | -2.4 | 15.8 µM | 
18 | O=C(O)c1csc(-n2cc(Cc3ccc(CO)cc3)c(-c3cccc(-c4ccccc4)c3)n2)n1 [NCGC00371885-01] | -35% | -2.4 | 44.7 µM |  |  |  | 
19 | Oc1c(I)cc(Cl)c2cccnc12 [NCGC00016391-13] | -32% | -2.4 | 56.2 µM |  |  |  | 
20 | Cc1ccc(-c2c(C(=O)CCl)n(CCCO)c3ncnc(N)c23)cc1 [NCGC00485901-01] |  |  |  | -25% | -1.4 | 3.5 µM | 
21 | Cc1ccc(-n2nc(C(C)(C)C)cc2NC(=O)Nc2ccc(OCCN3CCOCC3)c3ccccc23)cc1 [NCGC00241104-02] | -32% | -2.4 | 44.7 µM |  |  |  | 
22 | O=C(O)CC1(O)C(=O)Nc2ccccc21 (centres unmarked) [NCGC00385842-01] |  |  |  | -28% | -2.4 | 56.2 µM | 
23 | Cc1ccc(S(=O)(=O)Nc2cnccc2C(=O)Nc2nc(C(=O)O)cs2)cc1.O=C(O)C(F)(F)F [NCGC00343903-01] | -36% | -2.4 | 50.1 µM |  |  |  | 
24 | CCCc1c(OCCCOc2ccc(OCC(=O)O)cc2)ccc(C(C)=O)c1O [NCGC00015599-05] |  |  |  | -25% | -2.2 | 50.1 µM | 
25 | O=C(Nc1nc(-c2ccccc2)cs1)c1ccncc1NS(=O)(=O)c1ccc(F)cc1Cl.O=C(O)C(F)(F)F [NCGC00345105-01] | -42% | -2.2 | 79.4 µM |  |  |  | 
26 | CO/N=C(\C(=O)N[C@@H]1C(=O)N2C(C(=O)O)=C(CSc3nc(=O)c(O)nn3C)CSC12)c1csc(N)n1 (some centres unmarked) [NCGC00162111-02] |  |  |  | -18% | -1.2 | 20 µM | 
27 | C[C@](N)(Cc1ccc(O)c(O)c1)C(=O)O [NCGC00024667-14] | -24% | -2.4 | 89.1 µM |  |  |  | 
28 | CCN(CC)CCCN(c1ccccc1)C1Cc2ccccc2C1.Cl [NCGC00167576-02] | -57% | -3 | 89.1 µM |  |  |  | 
29 | Cl.Cl.NC(CO)C(=O)NNCc1ccc(O)c(O)c1O (centres unmarked) [NCGC00015163-09] | -50% | -2.2 | 50.1 µM |  |  |  | 
30 | O=c1[nH]c2cc([N+](=O)[O-])c([N+](=O)[O-])cc2[nH]c1=O [NCGC00015319-06] | -48% |  | 31.6 µM |  |  |  | Curve Class [1]: -2.2
31 | Cc1nc(CNc2ncnc3ccc(-c4ccc(CO)o4)cc23)cs1.O=C(O)C(F)(F)F [NCGC00188652-01] | -35% | -2.4 | 56.2 µM |  |  |  | 
32 | CC[PH](CC)(CC)[Au][S][C@@H]1O[C@H](COC(C)=O)[C@@H](OC(C)=O)[C@H](OC(C)=O)[C@H]1OC(C)=O [NCGC00160391-05] |  |  |  |  |  |  | Efficacy (%) (qHTS FP screen hits, Table S2): -30%; IC50 (qHTS FP screen hits, Table S2): 17.1 µM
